Source: US20070244138A1, “Mercaptoimidazoles as Ccr2 Receptor Antagonists” (JANSSEN PHARMACEUTICA N.V., priority 2004, published 2007)

Tested on: not given
Experiment: not given
Settings: not given

melting point | Compound
97.8 to 97.9 °C | CCCC(c1ccc(F)c(F)c1)n1c(-c2nnc(C)o2)c(COC)[nH]c1=S (stereo not shown) [Compound 10]

Biological target: T1, CCR2 receptor (Homo sapiens, UniProt P41597)
T1 construct: host or cells: THP-1 (human monocytic cell line)
T1 sequence (P41597 1-360 isoform P41597-2): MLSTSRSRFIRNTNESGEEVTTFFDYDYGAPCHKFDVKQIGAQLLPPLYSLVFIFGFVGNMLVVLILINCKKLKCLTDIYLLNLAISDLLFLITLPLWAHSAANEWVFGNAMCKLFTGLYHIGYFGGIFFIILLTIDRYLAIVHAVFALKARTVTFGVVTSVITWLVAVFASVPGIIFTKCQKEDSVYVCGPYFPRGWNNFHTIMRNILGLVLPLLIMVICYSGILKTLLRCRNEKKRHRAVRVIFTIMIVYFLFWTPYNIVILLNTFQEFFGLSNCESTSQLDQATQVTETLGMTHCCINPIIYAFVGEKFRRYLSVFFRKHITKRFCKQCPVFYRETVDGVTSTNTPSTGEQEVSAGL
Experiment: Inhibition of MCP-1 induced Ca-flux in human THP-1 cells
Format: cell-based
Settings: -log IC50 (molar), inhibition of specific MCP-1 induced Ca2+ flux, 10^-7 M hMCP-1, 20 min pre-incubation, FLIPR
Procedure: D. Pharmacological Example Inhibition of MCP-1 Induced Ca-Flux in Human THP-1 Cells
MCP-1 binding to the CCR2 receptor induces a rapid and transient intracellular release of Ca^2+ (secondary messenger) in several cell lines (Charo et al, PNAS 1994). Free Ca^2+ levels can be measured using a Ca^2+ sensitive dye. When the CCR2 receptor is blocked with a CCR2 receptor antagonist, the MCP-1 induced release of Ca^2+ is inhibited.
Human THP-1 cells (monocytic cell line, ATCC TIB-202) were cultured in RPMI 1640 medium supplemented with 10% fetal calf serum (FCS), 1% L-Glutamine, penicillin (50 U/ml) and streptomycin (50 μg/ml) (all GIBCO BRL, Gent). After centrifugation, cells were loaded for 30 minutes with the Ca^2+ sensitive fluorescent dye Fluo-3 AM (Molecular Probes, Leiden, Netherlands) (2 million cells/ml in RPMI medium containing 4 μM Fluo-3 AM, 20 mM HEPES, 0.1% Bovine Serum Albumin (BSA) and 5 mM probenecid). Excess dye was removed by 3-fold washing with buffer (5 mM HEPES, 140 mM NaCl, 1 mM MgCl2, 5 mN KCl, 10 mM glucose, 2.5 mM probenecid, 1.25 mM CaCl2, 0.1% BSA; all further incubations were done in this buffer). Cells were plated at a density of 150 000 cells/well in dark-wall 96-well plates (Costar, Cambridge, Mass.) and sedimented by centrifugation (1 minute). The cells were pre-incubated for 20 minutes with test compound Then, 10^−7 M hMCP-1 (Bachem, Bubendorf, Switserland) was added. Changes in intracellular free Ca^2+ concentration were measured using the Fluorescent Imaging Plate Reader (FLIPR, Molecular Devices, Munchen, Germany). Fluorescence was recorded every second from 10 seconds before the addition of the MCP-1 till 2 minutes after the addition (first minute: 60 records with 1 second intervals, second minute 20 records with 3 second intervals). The maximal fluorescence obtained during this time frame was used for further calculations.
Table 4 reports pIC50 values obtained in the above-described test for compounds of formula (I). pIC50 defines −log IC5o wherein IC50 is the molar concentration of the test compound which inhibits 50% of specific MCP-1 induced Ca^2+ flux.

Compound | IC50
CCC(c1ccc(Cl)c(Cl)c1)n1c(-c2ncn[nH]2)c[nH]c1=S (stereo not shown) [Compound 12] | 0.398 µM
CCC(c1ccc(Cl)c(Cl)c1)n1c(-c2nnc(C)o2)c[nH]c1=S (stereo not shown) [Compound 14] | 0.417 µM
CCC(c1ccc(Cl)c(Cl)c1)n1c(-c2nnc(N)o2)cnc1S (stereo not shown) [Compound 9] | 0.0331 µM
CCC(c1ccc(Cl)c(Cl)c1)n1c(-c2ccnc(N)n2)c[nH]c1=S (stereo not shown) [Compound 1] | 0.0355 µM
CCC(c1ccc(C(F)(F)F)c(F)c1)n1c(-c2nc(C)no2)c[nH]c1=S (stereo not shown) [Compound 26] | 0.219 µM

Next, values leading:

IC50 | Compound
0.0347 µM | CCC(c1ccc(Cl)c(Cl)c1)n1c(-c2ccnc(NCCO)n2)c[nH]c1=S (stereo not shown) [Compound 21]
0.0417 µM | CCC(c1ccc(Cl)c(Cl)c1)n1c(-c2ccnc(NC)n2)c[nH]c1=S (stereo not shown) [Compound 20]
0.631 µM | CCC(c1ccc(Cl)c(Cl)c1)n1c(-c2ccnc(N3CCNCC3)n2)c[nH]c1=S (stereo not shown) [Compound 24]
0.2 µM | CCC(c1ccc(Cl)c(Cl)c1)n1c(-c2nc(C)no2)cnc1S (stereo not shown) [Compound 5]
0.724 µM | CCC(c1ccc(Cl)c(Cl)c1)n1c(-c2cc[nH]n2)c[nH]c1=S (stereo not shown) [Compound 11]
0.832 µM | CCC(c1ccc(Cl)c(Cl)c1)n1c(-c2ccnc(C)n2)c[nH]c1=S (stereo not shown) [Compound 19]

Biological target: T2, CCR2B (Homo sapiens, UniProt P41597)
T2 construct: expressed in transfected cells; host or cells: CHO cells (membrane preparation)
T2 sequence (P41597 1-360 isoform P41597-2): T1 sequence (P41597 1-360 isoform P41597-2)
Experiment: 125I-MCP-1 radioligand binding assay, membranes from CCR2B-transfected CHO cells
Settings: competition with 0.15 nM 125I-MCP-1, 90 minutes at 25° C.; Cheng-Prusoff
Procedure: Radioligand Binding Assay.
^125I-MCP binding assays performed in 96-well plates with 40 μg of protein per well. Compounds were dissolved and diluted in DMSO to 100× dilutions. A 10× concentration range of compounds was prepared in binding buffer (10% DSMO). Competition binding assay contained the following components in a total volume of 250 μl of the appropriate compound dilution (final concentration of 1% DMSO), 200 μl membranes from CCR2B-transfected CHO cells dissolved in binding buffer and 25 μl ^125I-MCP-1(Bolton and Hunter labeled, Amersham, specific activity=2000 Ci/mmol, 0.15 nM final). Binding buffer was composed of 25 mM HEPES, 5 mM MgCl2, 1 mM CaCl2, 0.5% protease-free bovine serum albumin, pH 7.4. After 90 minutes incubation at 25° C., membranes were harvested on GF/B filters -presoaked in 0.5% polyethylenimene, followeded by washing with buffer containing 25 mM HEPES, 5 mM MgCl2, 1 mM CaCl2, […], pH 7.4. Filter bound radioactivity was determined by liquid scintillation counting. EC50 values (μM) and Ki values (μM) were calculated. […] EC50 values and Ki values were calculated using non-linear regression in Graphpad Prism. […]

Ki | Compound
0.17 µM | CCC(c1ccc(Cl)c(Cl)c1)n1c(-c2ccnc(N)n2)c[nH]c1=S (stereo not shown) [Compound 1]
